Experimental data as given in US9289412B2, “Role of limonoid compounds as neuroprotective agents” (The Johns Hopkins University, priority 2006, dated 2016).
Where two headings read alike, the source gives them in different places.

Tested on: rat mixed hippocampal cultures
Experiment: 3-NP neurotoxicity assay, MTT viability, rat mixed hippocampal cultures
Type: cell-based
Conditions: for inhibition at 10 µM: Rattus norvegicus
Description: For example, a cell viability assay can be used in a preliminary screen on a large series of compounds each of which is tested at a fixed concentration. In some embodiments, mixed hippocampal cell cultures are prepared as described in, e.g., Haughey et al. (1999), J Neurochem, 73(4):1363-1374, and Haughey et al (2004), J Neurosci, 24(1):257-268. Subsequently, the cultures are pretreated for one hour in the presence of a candidate neuroprotective agent and then incubated with a cytotoxic agent for about 18 hours. Examples of cytotoxic agents include, but are not limited to, oxidative stressors (e.g., 3-nitropropionic acid (3-NP) or H2O2), excitatory amino acids (e.g., kainate), or neurotoxic proteins (e.g., Hiv Tat, or Aβ peptides). […] The level of protection (“percent protection”) provided by the test compound at a given test concentration in vitro can be expressed as: […]
A variety of methods for determining cell viability may be used. In some embodiments, cell viability is assessed based on the “MTT” assay method described in Mosmann (1983), J Immunol Methods, 65(1-2):55-63, or a variant thereof. This assay is based on the ability of a mitochondrial dehydrogenase enzyme from viable cells to cleave the tetrazolium rings of the pale yellow MTT and form dark blue formazan crystals, which are trapped in cells and readily quantified by ELISA spectrophotometry.
We sought to evaluate the protective efficacy of a number of modified terpenoid compounds against the against many different neurotoxins, ranging from the chemotoxic 6-OHDA, NMDA, 3-nitropropionic acid (3-NP), and viral proteins such as Tat and gp120. Thus, we established an in vitro neuroprotection assay using rat mixed hippocampal cultures, in which we evaluated the protective efficacy of neuroprotective compounds disclosed herein. The oxidative stressor 3-NP was used to elicit toxicity in the rat hippocampal cultures to mimic the oxidative damage, reactive oxygen species production and ensuing neurodegeneration resulting from HIV infection. Another measure of neurotoxicity which results from HIV infection was evaluated by exposure of the hippocampal cultures to HIV-1 Tat (Li et al (2005), Neurotox Res, 8(1-2): 119-134).
Rat mixed hippocamal neuronal cultures were generated from freshly dissected rat hippocampi (embryonic day 18) in neurobasal media containing 5% fetal bovine serum and 2% B27 supplement. The cells were plated into 96 well plates at a density of 4×10^5 cells/mL and routinely used on days 11-14 following culturing. Cell viability was assessed with MTT [3-(4,5-dimethylthiazol-2-yl)-2,5-diphenyltetrazolium bromide] assay. The MTT assay is based on the ability of a mitochondrial dehydrogenase enzyme from viable cells to cleave the tetrazolium rings of the pale yellow MTT and form dark blue formazan crystals. See Mosmann (1983), J Immunol Methods, 65(1-2):55-63. These crystals are largely impermeable to cell membranes, and thus accumulate within healthy cells. The resultant formazan precipitates are solubilized with DMSO and read on a multiwell scanning spectrophotometer (ELISA reader). The number of surviving cells is directly proportional to the level of the formazan product created.
Mixed hippocampal cultures were incubated with 3-NP (0.5-10 mM) for 18 hours and then assessed for viability using an MTT assay.
Cultures were preincubated with GPI 1046 or Resveratrol for one hour prior to an 18 hour exposure to 3 mM 3-NP. […] The same neuroprotective compounds were evaluated for efficacy against HIV-1 Tat protein toxicity using the same 1 hour preincubation protocol.

[1] = Table 3, 3 mM 3-NP 18 h, 1 h preincubation, test concentration (10 μM)
[2] = Table 2, vs 3 mM 3-NP 18 h, 1 h preincubation, test concentration (10 μM), read-out: % Protection
[3] = Table 2, vs 3 mM 3-NP 18 h, 1 h preincubation, test concentration (10 μM)
[4] = Table 3, 3 mM 3-NP 18 h, 1 h preincubation, test concentration (10 μM), read-out: % Protection vs 3-NP

KHAYASIN C
% Protection vs 3-NP [1]: 13%

C=C1C2CC[C@]3(C)[C@@H](c4ccoc4)OC(=O)CC13O[C@H]1CC(O)C(C)(C)C(CC(=O)OC)[C@@]21C (stereo partly drawn) [3alpha-HYDROXY-3-DEOXYANGOLENSIC ACID METHYL ESTER]
inhibition at 10 µM [2]: 35%

CC(=O)O[C@@H]1CC2C(C)(C)CCC[C@]2(C)C2CC[C@@]3(C)[C@H](c4ccoc4)OC(=O)C4OC43[C@@]21C (stereo partly drawn) [DEOXODIHYDROGEDUNIN]
inhibition at 10 µM [2]: 101%

CC(=O)O[C@H]1C[C@@H](OC(C)=O)C(C)(C)C2C[C@H](OC(C)=O)[C@]3(C)C(CC[C@@]4(C)[C@H](c5ccoc5)OC(=O)[C@H]5O[C@]543)[C@]21C (stereo partly drawn) [7-EPIKHIVORIN]
inhibition at 10 µM [2]: 65%

CCC(C)C(=O)O[C@@H]1C[C@@]2(C)[C@H](c3ccoc3)OC(=O)CC23OC2(C)OC34[C@H](OC(=O)C(C)C)[C@@]3(O)[C@@H](OC(=O)C5(C)OC5C)[C@@]5(C)C[C@]3(O)[C@@](C)([C@H]5CC(=O)OC)C14O2 (stereo partly drawn) [ENTANDROPHRAGMIN]
% Protection vs 3-NP [1]: 18%

CC(=O)OC1CC2C(C)(C)CCC[C@]2(C)C2CC[C@]3(C)C(=CC(=O)O[C@H]3c3ccoc3)[C@]12C (stereo partly drawn) [DEOXODEOXYDIHYDRO- GEDUNIN, DEOXODEOXYDIHYDROGEDUNIN]
% Protection [3]: 77%

COC(=O)C[C@H]1C(C)(C)C2(O)OC34CC2C(=O)[C@]1(C)C3CC[C@]1(C)C4=CC(=O)O[C@H]1c1ccoc1 (stereo partly drawn) [8beta-HYDROXYCARAPIN, 3,8-HEMIACETAL]
% Protection vs 3-NP [1]: 9%

C=C1[C@@H]([C@@]2(C)[C@@H](OC(C)=O)CC(=O)O[C@](C)(COC(C)=O)[C@@H]2C(=O)OC)[C@@H](OC=O)[C@H](OC(=O)[C@H](O)[C@H](C)CC)[C@@]2(C)[C@H](c3ccoc3)CC(=O)[C@]12O [PRIEURIANIN]
inhibition at 10 µM (18 h, read-out: % Protection vs 3-NP): 6%

CC(=O)O[C@H]1CC[C@]2(C)[C@H]3CC[C@@]4(C)[C@H](c5ccoc5)OC(=O)[C@H]5O[C@]54[C@]3(C)[C@H](OC(C)=O)C[C@H]2C1(C)C [3beta- ACETOXYDEOXODIHYDRO- GEDUNIN, 3beta-ACETOXYDEOXODIHYDROGEDUNIN]
inhibition at 10 µM [2]: 39%
inhibition at 10 µM [4]: 39%

COC(=O)C[C@H]1C(C)(C)[C@@H](OC(C)=O)[C@@H]2CC3C4CC(=O)O[C@@H](c5ccoc5)[C@]4(C)CCC3[C@@]1(C)C2=O (stereo partly drawn) [DIHYDROFISSINOLIDE]
inhibition at 10 µM [4]: 12%

COC(=O)C[C@H]1C(C)(C)C(=O)[C@@H]2CC3C4=CC(=O)O[C@@H](c5ccoc5)[C@]4(C)CC[C@@H]3[C@@]1(C)C2=O (stereo partly drawn) [CARAPIN]
inhibition at 10 µM [4]: 18%

COC(=O)[C@@H]1OC(=O)C2OC23[C@@]1(C)CCC1[C@]2(C)C(C[C@@H](O)[C@]13C)C(C)(C)[C@H](OC(C)=O)C[C@@H]2OC(C)=O (stereo partly drawn) [DESACETYL (7)KHIVORINIC ACID, METHYL ESTER]
% Protection [3]: 58%

CC(=O)O[C@H]1C[C@@H](OC(C)=O)C(C)(C)C2CC(=O)[C@]3(C)C(CC[C@@]4(C)[C@H](c5ccoc5)OC(=O)[C@H]5O[C@]543)[C@]21C (stereo partly drawn) [7-DEACETOXY-7- OXOKHIVORIN, 7-DEACETOXY-7-OXOKHIVORIN]
inhibition at 10 µM [2]: 36%
inhibition at 10 µM [4]: 36%

CC(=O)O[C@@H]1CC2C(C)(C)C(=O)C3OC3[C@]2(C)C2CC[C@@]3(C)[C@H](c4ccoc4)OC(=O)C4OC43[C@@]21C (stereo partly drawn) [EPOXYGEDUNIN]
% Protection [3]: 69%

CC1(C)C(=O)[C@@H]2O[C@@H]2[C@@]2(C)C1C[C@@H](O)[C@]1(C)C2CC[C@@]2(C)[C@H](c3ccoc3)OC(=O)C3OC321 (stereo partly drawn) [1,2alpha- EPOXYDEACET[…], 1,2alpha-EPOXYDEACETOXYDIHYDROGEDUNIN]
% Protection [3]: 25%

COC(=O)[C@@H]1OC(=O)C2OC23[C@@]1(C)CCC1[C@]2(C)C(C[C@H](O)[C@]13C)C(C)(C)[C@H](OC(C)=O)C[C@@H]2OC(C)=O (stereo partly drawn) [7beta-HYDROXY-7-DESACETOXYKHIVORINIC ACID, METHYL ESTER]
% Protection [3]: 84%

CC(=O)O[C@@H]1CC2C(C)(C)C3(CC[C@]2(C)C2CC[C@@]4(C)[C@H](c5ccoc5)OC(=O)C5OC54[C@@]21C)SCCS3 (stereo partly drawn) [DIHYDROGEDUNIN ETHANEDITHIOKETAL]
% Protection [3]: 19%

CC(=O)O[C@@H]1CC2C(C)(C)C(=O)C3OC3[C@]2(C)C2CC[C@@]3(C)C(=CC(=O)O[C@@H]3c3ccoc3)[C@@]21C (stereo partly drawn) [1 (2)alpha- EPOXYDEOXYDIHYDRO- GEDUNIN, 1 (2)alpha-EPOXYDEOXYDIHYDROGEDUNIN]
inhibition at 10 µM [2]: 14%

CC(=O)OC1C[C@H](OC(C)=O)[C@@]2(C)C(C[C@@H](OC(C)=O)[C@]3(C)C2CC[C@@]2(C)[C@H](c4ccoc4)OC(=O)[C@H]4O[C@]423)C1(C)C (stereo partly drawn) [KHIVORIN]
protection against 3-NP, in words (FIG. 5A) (3 mM 3-NP, 10 μM of Khivorin): nearly complete protection
inhibition at 10 µM [2]: 70%

CC1(C)C(=O)C=C[C@@]2(C)C1C[C@@H](O)[C@]1(C)C2CC[C@@]2(C)[C@H](c3ccoc3)OC(=O)[C@H]3O[C@]321 (stereo partly drawn) [DEACETYLGEDUNIN]
inhibition at 10 µM [4]: 19%
% Protection [3]: 19%

CC(=O)O[C@H]1C[C@@H](O)C(C)(C)[C@@H]2C[C@@H](OC(C)=O)[C@]3(C)[C@H](CC[C@@]4(C)[C@@H](c5ccoc5)OC(=O)[C@H]5O[C@@]534)[C@@]12C [3-DEACETYLKHIVORIN]
% Protection vs 3-NP [1]: 7%

KHAYANTHONE
% Protection vs 3-NP [1]: 36%

CC(=O)O[C@@H]1CC2C(C)(C)[C@H](O)C=C[C@]2(C)C2CC[C@]3(C)C(=CC(=O)O[C@H]3c3ccoc3)[C@@]21C (stereo partly drawn) [3-alpha- HYDROXYDEOXYGEDININ, 3-alpha-HYDROXYDEOXYGEDININ]
% Protection [3]: 28%

CC1(C)C(=O)C=C[C@@]2(C)C1CC(=O)[C@]1(C)C2CC[C@@]2(C)[C@H](c3ccoc3)OC(=O)[C@H]3O[C@]321 (stereo partly drawn) [DEACETOXY-7-OXOGEDUNIN]
inhibition at 10 µM [2]: 38%
inhibition at 10 µM [4]: 38%

CC1(C)C2CC(=O)[C@]3(C)C(CC[C@@]4(C)[C@H](c5ccoc5)OC(=O)[C@H]5O[C@]543)[C@@]2(C)C=C[C@@H]1O (stereo partly drawn) [3beta-HYDROXYDEOXYDESACETOXY-7-OXOGEDUNIN]
inhibition at 10 µM [2]: 30%

C=C1C2CC[C@@]3(C)[C@H](c4ccoc4)OC(=O)C[C@]13O[C@H]1CC(=O)C(C)(C)[C@H](C(O)C(=O)OC)[C@@]21C (stereo partly drawn) [6-HYDROXYANGOLENSIC ACID METHYL ESTER]
inhibition at 10 µM [2]: 26%
inhibition at 10 µM [4]: 26%

CC1(C)C(=O)C=C[C@@]2(C)C1CC(=O)[C@@]1(C)C3=CC(=O)O[C@@H](c4ccoc4)[C@]3(C)CCC12 (stereo partly drawn) [7-DEACETOXY-7- OXODEOXYGEDUNIN, 7-DEACETOXY-7-OXODEOXYGEDUNIN]
inhibition at 10 µM [2]: 24%

CC1(C)C2CC(=O)[C@]3(C)C(CC[C@@]4(C)[C@H](c5ccoc5)OC(=O)C5OC543)[C@@]2(C)[C@@H](O)C[C@H]1O (stereo partly drawn) [1,3-DIDEACETYL-7-DEACETOXY-7-OXOKHIVORIN]
inhibition at 10 µM [4]: 15%
% Protection [3]: 15%

C=C1C2CC[C@@]3(C)[C@H](c4ccoc4)OC(=O)C[C@]13OC1CC(=O)C(C)(C)C(CC(=O)OC)C12C (stereo partly drawn) [[…], METHYL ESTER]
protection against 3-NP (FIG. 5) (3 mM 3-NP, approximate values): about 50%
inhibition at 10 µM [2]: 33%
inhibition at 10 µM [4]: 33%

CC(=O)O[C@@H]1CC2C(C)(C)C(=O)CC[C@]2(C)C2CC[C@@]3(C)[C@@H](c4ccoc4)OC(=O)C4OC43[C@@]21C (stereo partly drawn) [DIHYDROGEDUNIN]
inhibition at 10 µM [2]: 28%

CC(=O)O[C@@H]1CC2C(C)(C)C=CC(=O)[C@]2(C)C2CC[C@@]3(C)[C@H](c4ccoc4)OC(=O)C4OC43[C@@]21C (stereo partly drawn) [ISOGEDUNIN]
inhibition at 10 µM [2]: 50%

COC(=O)C[C@H]1C2(C)CC34OC5(C)O[C@@]6([C@H](OC(C)=O)C(OC(C)=O)[C@]7(C)C(/C(=C(/O)C(C)C)C(=O)O[C@H]7c7ccoc7)[C@@]6(O5)[C@H](OC(C)=O)[C@@]3(O)C2OC(=O)C(C)C)[C@]14C (stereo partly drawn) [BUSSEIN]
inhibition at 10 µM [4]: 18%

CC(=O)O[C@H]1CC[C@@]2(C)C(C[C@@H](OC(C)=O)[C@@]3(C)C4=CC(=O)O[C@@H](c5ccoc5)[C@]4(C)CCC23)C1(C)C (stereo partly drawn) [3-DEOXO-3beta-ACETOXYDEOXYDIHYDROGEDUNIN]
inhibition at 10 µM [2]: 56%
